The record followed here is patent publication US8569298B2, “Pyridine compounds” (Astrazeneca AB, priority 2008, dated 2013).

For the test, the target named is T1, FAK enzyme (6 His tagged kinase domain, GenBank NP—722560) (Homo sapiens, UniProt Q05397).
T1 construct: 6 His; made in house; host or cells: insect cell culture infected with baculovirus
T1 sequence (Q05397 422-680 limits assumed): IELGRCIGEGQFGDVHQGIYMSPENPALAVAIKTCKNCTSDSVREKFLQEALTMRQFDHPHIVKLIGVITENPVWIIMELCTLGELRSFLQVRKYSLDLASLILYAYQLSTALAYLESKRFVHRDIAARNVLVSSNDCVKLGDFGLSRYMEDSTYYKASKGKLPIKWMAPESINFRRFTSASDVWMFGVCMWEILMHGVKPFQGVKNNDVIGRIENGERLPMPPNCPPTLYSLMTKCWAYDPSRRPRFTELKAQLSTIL
In words: In vitro enzyme assay (a): sandwich ELISA of FAK tyrosine kinase activity on polyGAT peptide, TMB colorimetric endpoint. It is filed as biochemical. To be noted: in vitro Enzyme Assay test (a); ATP at Km; geometric mean of n > 1 measurements, values marked * tested once. The method, then: (a) In Vitro Enzyme Assay
A sandwich ELISA assay with a 3,3′,5,5′-tetramethyl benzidine (TMB) colorimetric endpoint was used in order to determine the level of effect of selected compounds on inhibition of FAK protein tyrosine kinase enzyme activity. A synthetic tyrosine containing peptide is coated onto a plastic surface, the level of phosphorylation of these tyrosine residues by the kinase enzyme in the presence of inhibitors is measured using an antibody that binds specifically to phosphorylated tyrosine residues. The amount of antibody bound to substrate is proportional to the level of enzyme catalysis.
Assay Protocol to Identify Inhibitors of Focal Adhesion Kinase (FAK).
A PlateMate Plus™ 384 automated liquid handling unit with a 100 μl disposable tip head was used to make all the non compound reagent additions and a Tecan 384PW plate washer with 384 head was used for all wash steps. Initially Matrix 384 well polystyrene plates (Cat #:4311) were coated with 40 μl/well of a 0.0375 mg/ml solution of synthetic poly peptide (polyGAT, Sigma Cat #:P3899) dissolved in phosphate buffered saline (PBS). Plates were stored overnight at 4° C. Immediately before use the coating solution was aspirated out and each well washed with 2×100 μl of PBS+0.05% Tween 20. To remove surplus phosphate, the wells were then washed with 2×100 μl 50 mM HEPES buffer pH 7.4. Plates were blotted dry before the addition of compounds. Compounds were tested over a 12 point dose range, a Labcyte Echo 550 was used to dispense compounds in nl volumes and back fill with DMSO. The final concentration of compound in the assay was dependent on the starting concentration of compound. For a 10 mM stock compound the final assay dose ranged from 100 μM down to […]. Control wells containing 120 nl DMSO (Max) or 120 nl of 10 mM staurosporine (LC Laboratories, Boston, USA Cat #: S-9300) (Min) were included in each plate. 10 ul of 5% dimethyl sulfoxide v/v (DMSO, Fisher Scientific) was added to each well immediately prior to addition of 10 μl of a co-factor solution containing 80 mM MgCl2 (Sigma Cat #: M1028); 80 mM MnCl2 (Sigma Cat #: M1787); ATP at a concentration calculated to enable the initial reaction velocity to progress at half the maximum velocity (Km for ATP) (Sigma Cat #:A7699). A final addition of 20 μl of enzyme solution containing 100 mM HEPES pH7.4; 0.2 mM sodium vanadate (Sigma Cat #:S6508); 0.2 g/l bovine serum albumin (BSA, Sigma Cat #: A7888); 0.2 mM dithioreitol (Sigma Cat #: 5545); 0.1% Triton X100 (Sigma Cat #:X100); FAK enzyme (20 μl/ml) was made to each well to start the assay running FAK enzyme was generated from an insect culture infected with baculo virus containing the DNA sequence encoding the 6 His tagged kinase domain (GenBank NP_722560).
Plates were left at room temperature for 25 minutes before 10 μl of 500 mM ethylenediaminetetraacetic acid (EDTA) was added to stop the assay and the wells were immediately washed 3×100 μl with PBS+0.05% Tween 20. A 4G10 antibody (Millipore Cat #: 16-105; 16-184) with a directly conjugated horse radish peroxidase (HRP) was used to detect the phosphorylation of the substrate by the FAK. 40 μl of PBS+0.05% Tween 20 containing 0.5% BSA and 0.1 μl/ml antibody was added to each well and left for 1 hour at room temperature to allow the antibody to bind. After this period the wells were again washed with 3×100 μl of PBS+0.05% Tween 20. TMB (Sigma Cat #: T2885) was used as a substrate for the HRP. Phosphate-citrate buffer was made up using capsules provided by Sigma (Cat #: P4922) following the manufacturers guidelines. TMB was dissolved at a concentration of 1 mg/ml in DMSO and let down to a final concentration of 0.05 mg/ml with the phosphor-citrate buffer. 40 μl of the TMB solution was added to each assay well and left for 30 minutes for the blue colour to develop. […]
Compound `CNC(=O)c1ccccc1Nc1cc(Nc2cn(C)nc2C)ncc1C#N` [Example 1.01, 2-[[5-Cyano-2-[(1,3-dimethylpyrazol-4-yl)amino]-4-pyridyl]amino]-N-methyl-benzamide] displayed an IC50 of 65 nM.

As for `CNC(=O)c1ccccc1Nc1cc(Nc2cc(OC)nn2C)ncc1C#N` [Example 1.02, 2-[[5-cyano-2-[(5-methoxy-2-methylpyrazol-3-yl)amino]pyridin-4-yl]amino]-N-methylbenzamide], the IC50 worked out at 102 nM.

Consider `CON(C)C(=O)c1ccccc1Nc1cc(Nc2cn(C)nc2C)ncc1C#N` [Example 1.03, 2-[[5-Cyano-2-[(1,3-dimethylpyrazol-4-yl)amino]-4-pyridyl]amino]-N-methoxy-N-methyl-benzamide], for which the IC50 was found to be 554 nM.

Compound `CN1CCc2cccc(Nc3cc(Nc4cnn(C)c4)ncc3C#N)c2C1=O` [Example 1.04, 4-[(2-Methyl-1-oxo-3,4-dihydroisoquinolin-8-yl)amino]-6-[(1-methylpyrazol-4-yl)amino]pyridine-3-carbonitrile] registered an IC50 of 14 nM.

The compound `Cc1cc(Nc2cc(Nc3cccc4c3C(=O)N(C)CC4)c(C#N)cn2)nn1C` [Example 1.05, 6-[(1,5-dimethylpyrazol-3-yl)amino]-4-[(2-methyl-1-oxo-3,4-dihydroisoquinolin-8-yl)amino]pyridinc-3-carbonitrile] registered a half-inhibitory concentration (IC50) of 4 nM.

Compound `COc1cc(Nc2cc(Nc3cccc4c3C(=O)N(C)CC4)c(C#N)cn2)n(C)n1` [Example 1.06, 6-[(5-methoxy-2-methylpyrazol-3-yl)amino]-4-[(2-methyl-1-oxo-3,4-dihydroisoquinolin-8-yl)amino]pyridine-3-carbonitrile] displayed an IC50 of 20 nM.

For `CN1CCC(n2cc(Nc3cc(Nc4cccc5c4C(=O)N(C)CC5)c(C#N)cn3)cn2)CC1` [Example 1.07, 4-[(2-methyl-1-oxo-3,4-dihydroisoquinolin-8-yl)amino]-6-[[1-(1-methyl-4-piperidyl)pyrazol-4-yl]amino]pyridine-3-carbonitrile], the 50% inhibitory concentration (IC50) was found to be 128 nM.

Compound `Cc1nn(C)cc1Nc1cc(Nc2cccc3c2C(=O)N(C)CC3)c(C#N)cn1` [Example 1.08, 6-[(1,3-dimethylpyrazol-4-yl)amino]-4-[(2-methyl-1-oxo-3,4-dihydroisoquinolin-8-yl)amino]pyridine-3-carbonitrile] showed a concentration for half-maximal inhibition (IC50) of 6 nM.

As to `Cc1nn(C)cc1Nc1cc(Nc2ccc(N3CCN(C(C)C)CC3)c3c2C(=O)N(C)C3)c(C#N)cn1` [Example 1.09, 6-[(1,3-Dimethylpyrazol-4-yl)amino]-4-[[7-(4-isopropylpiperazin-1-yl)-2-methyl-3-oxo-isoindolin-4-yl]amino]pyridine-3-carbonitrile], the IC50 is 19 nM.

`CNC(=O)c1ccccc1Nc1cc(Nc2cc(C)n(C)n2)ncc1C(F)(F)F` [Example 2.01, 2-[[2-[(1,5-Dimethylpyrazol-3-yl)amino]-5-(trifluoromethyl)-4-pyridyl]amino]-N-methyl-benzamide] displayed an IC50 of 19 nM.

The compound `CNC(=O)c1ccccc1Nc1cc(Nc2cn(C)nc2C)ncc1C(F)(F)F` [Example 2.02, 2-[[2-[(1,3-dimethylpyrazol-4-yl)amino]-5-(trifluoromethyl)-4-pyridyl]amino]-N-methyl-benzamide] yielded an IC50 of 8 nM.

In the case of `CONC(=O)c1ccccc1Nc1cc(Nc2cn(C)nc2C)ncc1Cl` [Example 3.01, 2-[[5-Chloro-2-[(1,3-dimethylpyrazol-4-yl)amino]-4-pyridyl]amino]-N-methoxy-benzamide], the concentration for half-maximal inhibition (IC50) turned out to be 44 nM.

With `CONC(=O)c1ccccc1Nc1cc(Nc2cc(C)n(C)n2)ncc1Cl` [Example 3.02, 2-[[5-chloro-2-[(1,5-dimethylpyrazol-3-yl)amino]-4-pyridyl]amino]-N-methoxy-benzamide], the IC50 was determined as 41 nM.

For `CNC(=O)c1ccccc1Nc1cc(Nc2cnn(CC(=O)N3CCCC3)c2)ncc1Cl` [Example 3.03, 2-[[5-Chloro-2-[[1-(2-oxo-2-pyrrolidin-1-yl-ethyl)pyrazol-4-yl]amino]-4-pyridyl]amino]-N-methyl-benzamide], the half-inhibitory concentration (IC50) worked out at 80 nM.

`CNC(=O)c1ccccc1Nc1cc(Nc2cnn(CC(=O)N3CCCN(C)CC3)c2)ncc1Cl` [Example 3.04, 2-[[5-chloro-2-[[1-[2-(4-methyl-1,4-diazepan-1-yl)-2-oxo-ethyl]pyrazol-4-yl]amino]-4-pyridyl]amino]-N-methyl-benzamide] had an IC50 of 68 nM.

Regarding `CNC(=O)c1ccccc1Nc1cc(Nc2cnn(CC(=O)N3CCOCC3)c2)ncc1Cl` [Example 3.05, 2-[[5-chloro-2-[[1-(2-morpholino-2-oxo-ethyl)prazol-4-yl]amino]-4-pyridyl]amino]-N-methyl-benzamide], it took 90 nM to reach half-maximal inhibition (IC50).

Compound `CNC(=O)c1ccccc1Nc1cc(Nc2cnn(CC(=O)N(C)CCOC)c2)ncc1Cl` [Example 3.06, 2-[[5-chloro-2-[[1-[2-(2-methoxyethyl-methyl-amino)-2-oxo-ethyl]pyrazol-4-yl]amino]-4-pyridyl]amino]-N-methyl-benzamide] displayed a half-inhibitory concentration (IC50) of 99 nM.

Take `CNC(=O)c1ccccc1Nc1cc(Nc2cnn(CC(=O)N3CCN(C)CC3)c2)ncc1Cl` [Example 3.07, 2-[[5-chloro-2-[[1-[2-(4-methylpiperazin-1-yl)-2-oxo-ethyl]pyrazol-4-yl]amino]-4-pyridyl]amino]-N-methyl-benzamide]: half-maximal inhibition (IC50) required 48 nM.

Compound `CNC(=O)c1ccccc1Nc1cc(Nc2cc(OC)nn2C)ncc1Cl` [Example 3.08, 2-[[5-Chloro-2-[(5-methoxy-2-methylpyrazol-3-yl)amino]pyridin-4-yl]amino]-N-methylbenzamide] displayed an IC50 of 60 nM.

Turning to `CNC(=O)c1ccccc1Nc1cc(Nc2cc(C)nn2C)ncc1Cl` [Example 3.09, 2-[[5-chloro-2-[(2,5-dimethylpyrazol-3-yl)amino]-4-pyridyl]amino]-N-methyl-benzamide], the 50% inhibitory concentration (IC50) was found to be 29 nM.

Compound `CNC(=O)c1ccccc1Nc1cc(Nc2cc(C)n(C)n2)ncc1Cl` [Example 3.10, 2-[[5-chloro-2-[(1,5-dimethylpyrazol-3-yl)amino]-4-pyridyl]amino]-N-methyl-benzamide] gave a 50% inhibitory concentration (IC50) of 45 nM.

The compound `CNC(=O)c1ccccc1Nc1cc(Nc2cnn(C)c2)ncc1Cl` [Example 3.11, 2-[[5-chloro-2-[(1-methylpyrazol-4-yl)amino]-4-pyridyl]amino]-N-methyl-benzamide] gave an IC50 of 439 nM.

In the case of `CNC(=O)c1ccccc1Nc1cc(Nc2cnn(C3CCN(C)CC3)c2)ncc1Cl` [Example 3.12, 2-[[5-chloro-2-[[1-(1-methyl-4-piperidyl)pyrazol-4-yl]amino]-4-pyridyl]amino]-N-methyl-benzamide], half-maximal inhibition (IC50) was put at 195 nM.

Compound `CNC(=O)c1ccccc1Nc1cc(Nc2cnn(C3CCN(C(C)=O)CC3)c2)ncc1Cl` [Example 3.13, 2-[(2-[[1-(1-acetyl-4-piperidyl)pyrazol-4-yl]amino]-5-chloro-4-pyridyl]amino]-N-methyl-benzamide] had a half-inhibitory concentration (IC50) of 128 nM.

With `CNC(=O)c1ccccc1Nc1cc(Nc2cn(C)nc2C)ncc1Cl` [Example 3.14, 2-[[5-chloro-2-[(1,3-dimethylpyrazol-4-yl)amino]-4-pyridyl]amino]-N-methyl-benzamide], 45 nM corresponded to half-maximal inhibition (IC50).
